Measurements reported in patent publication US8304393B2, “Epithelial cell growth promoter” (Patent Technology Development Inc., priority 2004, dated 2012).

How the values were obtained:
HBKs = experiment: HBK growth test (Example 7, AlamarBlue); format: cell-based, C3H/HeN mouse; conditions: for effect on the HBK growth as compared with that of the control: 4 days culture
Description: (§1) To confirm the cell selectivity of the oligopeptide obtained in Example 3 as an epithelial cell growth promoter, the presence or absence of the cell growth-promoting effect on cells existing in skin tissues, that is, HBKs, epidermal cells, dermal fibroblasts, and hair papilla cells, was examined in the following manner. Incidentally, the same culture medium and test medium as in Example 5 were used.
(§2) The skin of a 5 day-old C3H/HeN mouse was aseptically collected and cut with a surgical knife into samples of strips of approximately 2-mm-wide skin slices. The above-mentioned samples were immersed in a solution prepared by dissolving 500 U/ml of dispase (lot No. 0101, a product by GODO SHUSEI CO.) in DMEM (product code “D-5523”, a product by Sigma) containing 5% by mass of FBS (lot No. 0101, a product by Cansera International Inc.), and then kept standing at 4° C. for 16 hours. Subsequently, epidermis tissues were ablated with tweezers from the skin slices and separated from dermis tissues. The thus obtained epidermis tissues were subjected to the separation of epidermal cells, and the dermis tissues were subjected to the separation of HBKs and dermal fibroblasts.
The thus obtained dermis tissues were immersed in PBS (−) (product code “P-4417”, a product by Sigma) and cut into strips with opthalmological scissors. The strips were immersed into a solution prepared by dissolving 0.2% by mass of collagenase (lot No. 001014W, a product by Nitta Gelatin Inc.) in DMEM containing 5% by mass of FBS, and then digested at 37° C. for 1 hour. The thus obtained dermis digestion solution was centrifuged at 1000 rpm for 5 minutes. The supernatant was removed, and the residue was supplemented with PBS (−) and gently pipetted to prepare a dermis suspension.
For separating dermal fibroblasts and hair bulbs, this dermis suspension was kept standing for 15 minutes to precipitate only the hair bulbs. The “standing to precipitation” procedure was repeated three times. The thus obtained hair bulbs were immersed in a solution preparing by dissolving 0.25% by mass of trypsin in 2.65 mM aqueous EDTA solution, and then treated at 37° C. for 5 minutes to prepare a dispersion solution of HBKs.
(§3) Next, this dispersion solution was centrifuged at 1000 rpm for 5 minutes. After this centrifugation, the supernatant was removed. The thus obtained HBKs were dispersed in a culture medium, then inoculated into a collagen-coated 96-well microplate, and cultured at 37° C. in an atmosphere containing 5% CO2.
(§4) A 1 mg portion of the pentapeptide obtained in Example 3 was added to 232.8 μl of a test medium and dissolved by stirring to prepare a 10 mM solution. Subsequently, this 10 mM solution was stepwise diluted to prepare 6 types of sample solutions each in a concentration of 100 μM (No. 1), 30 μM (No. 2), 10 μM (No. 3), 3 μM (No. 4), 1 (No. 5), and 0.3 μM (No. 6). Only a test medium was used as a control.
(§5) After 24 hours from the inoculation of the cells, the culture solutions were removed, and the cultured cells were washed with an MCDB153 solution. Each of the above mentioned sample solutions was added to the cultured cell at 100 μl/well and cultured at 37° C. in an atmosphere containing 5% CO2. After 4 days, AlamarBlue reagent (registered trademark, cat. No. DAL1100, lot No. AB083002, a product by Biosource International Inc.) was added at 10 μl/well, and the culture was continued at 37° C. in an atmosphere containing 5% CO2. After 2 hours, fluorescence intensity (excitation wavelength: 544 nm, measurement wavelength: 590 nm) was measured with a microplate reader (Model “Fluoroskan Ascent FL”, manufactured by Labsystems) to evaluate the number of cells. A significant difference test was performed by Dunnett's multiple comparison test (software “Super ANOVA V.1.11”, a product by Abacus Concepts).

dermal fibroblasts = experiment: Dermal fibroblast growth test (Example 7, AlamarBlue); format: cell-based, C3H/HeN mouse; conditions: 0.3-100 μM, 3 days culture
Description: as §1
The skin of a 5 day-old C3H/HeN mouse was aseptically collected and cut with a surgical knife into samples of strips of approximately 2-mm-wide skin slices. The above-mentioned samples were immersed in a solution prepared by dissolving 500 U/ml of dispase (lot No. 0101, a product by GODO SHUSEI CO.) in DMEM (product code “D-5523”, a product by Sigma) containing 5% by mass of FBS (lot No. 0101, a product by Cansera International Inc.), and then kept standing at 4° C. for 16 hours. Subsequently, epidermis tissues were ablated with tweezers from the skin slices and separated from dermis tissues. […]
(§6) After 24 hours from the inoculation of the cells, the culture solutions were removed, and the cultured cells were washed with a DMEM solution. […] After 2 hours, fluorescence intensity (excitation wavelength: 544 nm, measurement wavelength: 590 nm) was measured with a microplate reader (Model “Fluoroskan Ascent FL”, manufactured by Labsystems) to evaluate the number of cells.

human hair papilla cells = experiment: Hair papilla cell growth test (Example 7, AlamarBlue); format: cell-based; conditions: 0.3-100 μM, 3 days culture
Description: as §1
Moreover, human hair papilla cells (product code “602-05”, a product by TOYOBO CO.) were dispersed in a culture medium, then inoculated into a collagen-coated 96-well microplate, and cultured at 37° C. in an atmosphere containing 5% CO2.
as §4, with “Only a test medium was used as a control.” left out
as §6

epidermal cells = experiment: Epidermal cell growth test (Example 7, AlamarBlue); format: cell-based, C3H/HeN mouse; conditions: for effect on the epidermal cells as compared with that of the control: 4 days culture
Description: as §1, §2
The above-mentioned epidermis tissues were immersed in a solution prepared by dissolving 0.25% by mass of trypsin in 2.65 mM aqueous EDTA solution, and then treated at 37° C. for 5 minutes to prepare a dispersion solution of epidermal cells.
as §3, with “Subsequently,” for “Next,”, “minutes, and” for “minutes. After this centrifugation,”, “epidermal cells” for “HBKs”
as §4, §5

C3H/He female mice = experiment: Hair regrowth on shaved dorsal skin of telogen-phase mice (Example 6); format: in vivo; conditions: 1 mg/ml, 100 μl/mouse once a day topical, 14th day after application
Protocol: A 1 mg portion of the pentapeptide obtained in Example 3 was dissolved in 300 μl of water for injection (product code “057-00456”, a product by Otsuka Pharmaceutical Co.), to which 200 μl of propylene glycol (product code “161-05006”, a product by Wako Pure Chemical Industries) and 500 μl of ethyl alcohol (product code “057-00456”, a product by Wako Pure Chemical Industries) were then added and they were mixed together to prepare an epithelial cell growth promoter in a concentration of 1 mg/ml.
Ten 7-week-old C3H/He female mice were raised for acclimatization for 1 week, and the hair on the dorsal of each mouse in the telogen phase of a hair cycle was shaved with an electric clipper and an electric shaver to prepare experimental animals.
Next, these experimental animals were divided into two groups each containing five mice. The epithelial cell growth promoter was applied at 100 μl/mouse once a day to the shaved area of the first group from the 3rd day after shaving on, while only a mixture of water for injection, propylene glycol, and ethyl alcohol (3:2:5 by volume) was applied as a control to the second group.
Next, these images were computer-processed to calculate with image analysis software the ratio of the hair-regrowth area (the number of pixels of hair-regrowth area/the number of pixels of shaved area) as percentages. […]

CC[C@H](C)[C@H](NC(=O)[C@@H]1CCCN1C(=O)CN)C(=O)NCC(=O)N[C@@H](CO)C(=O)O (racemic) [Example 3, glycyl-prolyl-isoleucyl-glycyl-serine]
effect on the HBK growth as compared with that of the control (HBKs; 0.3 μM (No. 6)): 101%
effect on the HBK growth as compared with that of the control (HBKs; 1 μM (No. 5)): 111%
effect on the HBK growth as compared with that of the control (HBKs; 3 μM (No. 4)): 124%
effect on the HBK growth as compared with that of the control (HBKs; 10 μM (No. 3)): 141%
effect on the HBK growth as compared with that of the control (HBKs; 30 μM (No. 2)): 142%
effect on the HBK growth as compared with that of the control (HBKs; 100 μM (No. 1)): 141%
concentration at which significant difference from control could be noted (HBKs; HBKs, p<0.01, Dunnett's test): ≥ 1 µM
influence on dermal fibroblast growth (dermal fibroblasts): no influence
influence on hair papilla cell growth (human hair papilla cells): no influence
effect on the epidermal cells as compared with that of the control (epidermal cells; 0.3 μM (No. 6)): 102%
effect on the epidermal cells as compared with that of the control (epidermal cells; 1 μM (No. 5)): 110%
effect on the epidermal cells as compared with that of the control (epidermal cells; 3 μM (No. 4)): 118%
effect on the epidermal cells as compared with that of the control (epidermal cells; 10 μM (No. 3)): 124%
effect on the epidermal cells as compared with that of the control (epidermal cells; 30 μM (No. 2)): 127%
effect on the epidermal cells as compared with that of the control (epidermal cells; 100 μM (No. 1)): 127%
concentration at which significant difference from control could be noted (epidermal cells; epidermal cells, 1 μM: p<0.05, 3 μM or higher: p<0.01): ≥ 1 µM
hair growth promotion observed in pictures of the shaved areas (C3H/He female mice; compared with control group): evident hair growth promotion
ratio of the hair-regrowth area (C3H/He female mice; n=5, control 36.9±5.7%, p<0.01): 66.6±3.5%
